How the values were obtained:
Hepatitis C virus [1] = assay: Antiviral activity against Hepatitis C virus genotype 1b harboring NS5A L28V mutant gene in Huh-luc/neo-ET replicon cells after 48 hrs by transient replicon mutant-based luciferase assay; type: functional, organism-based, Hepacivirus hominis
Hepatitis C virus [2] = assay: Antiviral activity against Hepatitis C virus genotype 1b harboring NS5A L31V mutant gene in Huh-luc/neo-ET replicon cells after 48 hrs by transient replicon mutant-based luciferase assay; type: functional, organism-based, Hepacivirus hominis
[3] = In vivo clearance in CD rat relative to hepatic blood flow; type: ADME, organism-based, Liver; conditions: read-out: CLH
Hepatitis C virus [4] = assay: Antiviral activity against Hepatitis C virus genotype 1b harboring NS5A Y93H mutant gene in Huh-luc/neo-ET replicon cells after 48 hrs by transient replicon mutant-based luciferase assay; type: functional, organism-based, Hepacivirus hominis
Hepatitis C virus [5] = assay: Antiviral activity against Hepatitis C virus genotype 1a in Huh-luc/neo-ET replicon cells after 48 hrs by replicon-based luciferase assay; type: functional, organism-based, Hepacivirus hominis; conditions: subtype 1a
[6] = Oral bioavailability in CD rat; type: ADME, organism-based; conditions: in vivo
Hepatitis C virus [7] = assay: Antiviral activity against Hepatitis C virus genotype 1b in Huh-luc/neo-ET replicon cells after 48 hrs by replicon-based luciferase assay; type: functional, organism-based, Hepacivirus hominis
Hepatitis C virus [8] = assay: Ratio of EC50 for Hepatitis C virus genotype 1b harboring NS5A L31V mutant gene to EC50 for Hepatitis C virus genotype 1b harboring wild type NS5A in Huh-luc/neo-ET replicon cells by replicon-based luciferase assay; type: functional, Hepacivirus hominis
Hepatitis C virus [9] = assay: Antiviral activity against Hepatitis C virus genotype 1b in Huh-luc/neo-ET replicon cells assessed as log10 reduction of HCV RNA at 3 times EC90 after 20 days by RNA reduction assay; type: functional, Hepacivirus hominis
Hepatitis C virus [10] = assay: Antiviral activity against Hepatitis C virus genotype 1b in Huh-luc/neo-ET replicon cells assessed as log10 reduction of HCV RNA at 3 to 10 times EC90 after 5 days by RNA reduction assay; type: functional, Hepacivirus hominis
Hepatitis C virus [11] = assay: Ratio of EC50 for Hepatitis C virus genotype 1b harboring NS5A Y93H mutant gene to EC50 for Hepatitis C virus genotype 1b harboring wild type NS5A in Huh-luc/neo-ET replicon cells by replicon-based luciferase assay; type: functional, Hepacivirus hominis
Hepatitis C virus [12] = assay: Antiviral activity against Hepatitis C virus genotype 1b in Huh-luc/neo-ET replicon cells assessed as log10 reduction of HCV RNA at 10 times EC90 after 20 days by RNA reduction assay; type: functional, Hepacivirus hominis
[13] = Oral bioavailability in beagle dog; type: ADME, organism-based, Canis lupus familiaris; conditions: in vivo
Hepatitis C virus [14] = assay: Antiviral activity against Hepatitis C virus genotype 1 infected in patient assessed as decrease in log10 HCV RNA copies/ml at 1 mg administered as single dose; type: functional, Hepacivirus hominis
[15] = In vivo clearance in beagle dog relative to hepatic blood flow; type: ADME, organism-based, Canis lupus familiaris, Liver; conditions: read-out: CLH
[16] = Half life in rat hepatocytes; type: ADME, cell-based, Hepatocyte
Cytochrome P450 2D6 = Cytochrome P450 2D6 (Homo sapiens, UniProt P10635); assay: Inhibition of CYP2D6 (unknown origin); type: ADME
Sequence of Cytochrome P450 2D6 (P10635 whole entry): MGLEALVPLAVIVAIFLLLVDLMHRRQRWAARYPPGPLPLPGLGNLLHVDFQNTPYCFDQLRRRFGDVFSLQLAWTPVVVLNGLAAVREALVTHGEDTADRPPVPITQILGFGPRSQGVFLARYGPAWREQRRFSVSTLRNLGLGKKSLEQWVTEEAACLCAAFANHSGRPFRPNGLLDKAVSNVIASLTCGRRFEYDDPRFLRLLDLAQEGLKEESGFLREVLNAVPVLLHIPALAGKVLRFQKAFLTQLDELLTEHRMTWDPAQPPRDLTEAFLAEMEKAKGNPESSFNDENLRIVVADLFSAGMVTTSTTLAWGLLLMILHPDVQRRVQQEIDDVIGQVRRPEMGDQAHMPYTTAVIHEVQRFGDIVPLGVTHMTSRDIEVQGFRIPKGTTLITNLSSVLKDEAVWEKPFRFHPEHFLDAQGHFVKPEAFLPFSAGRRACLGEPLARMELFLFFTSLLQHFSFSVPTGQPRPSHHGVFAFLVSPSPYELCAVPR

Albumin = Albumin (Homo sapiens, UniProt P02768); assay: Binding affinity to human serum albumin; type: ADME; conditions: isolated protein
Sequence of Albumin (P02768 whole entry): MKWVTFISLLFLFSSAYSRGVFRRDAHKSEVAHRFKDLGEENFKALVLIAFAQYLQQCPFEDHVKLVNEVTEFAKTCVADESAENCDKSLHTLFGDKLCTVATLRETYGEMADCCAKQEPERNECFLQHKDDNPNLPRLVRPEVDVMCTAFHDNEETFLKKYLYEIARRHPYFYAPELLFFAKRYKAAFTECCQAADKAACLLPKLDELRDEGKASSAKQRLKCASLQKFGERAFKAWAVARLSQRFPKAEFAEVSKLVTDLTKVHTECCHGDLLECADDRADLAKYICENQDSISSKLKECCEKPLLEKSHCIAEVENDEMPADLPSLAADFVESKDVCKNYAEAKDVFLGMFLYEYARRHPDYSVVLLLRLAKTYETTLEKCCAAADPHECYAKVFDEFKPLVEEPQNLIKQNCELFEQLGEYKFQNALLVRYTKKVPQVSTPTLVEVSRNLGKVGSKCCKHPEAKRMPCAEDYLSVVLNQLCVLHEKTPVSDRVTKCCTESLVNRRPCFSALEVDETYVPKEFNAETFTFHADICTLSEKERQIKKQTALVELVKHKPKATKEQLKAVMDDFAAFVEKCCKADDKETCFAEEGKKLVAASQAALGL

Cytochrome P450 1A2 = biological target: T1, Cytochrome P450 1A2 (Homo sapiens, UniProt P05177); assay: Inhibition of CYP1A2 (unknown origin); type: ADME
T1 sequence (P05177 whole entry): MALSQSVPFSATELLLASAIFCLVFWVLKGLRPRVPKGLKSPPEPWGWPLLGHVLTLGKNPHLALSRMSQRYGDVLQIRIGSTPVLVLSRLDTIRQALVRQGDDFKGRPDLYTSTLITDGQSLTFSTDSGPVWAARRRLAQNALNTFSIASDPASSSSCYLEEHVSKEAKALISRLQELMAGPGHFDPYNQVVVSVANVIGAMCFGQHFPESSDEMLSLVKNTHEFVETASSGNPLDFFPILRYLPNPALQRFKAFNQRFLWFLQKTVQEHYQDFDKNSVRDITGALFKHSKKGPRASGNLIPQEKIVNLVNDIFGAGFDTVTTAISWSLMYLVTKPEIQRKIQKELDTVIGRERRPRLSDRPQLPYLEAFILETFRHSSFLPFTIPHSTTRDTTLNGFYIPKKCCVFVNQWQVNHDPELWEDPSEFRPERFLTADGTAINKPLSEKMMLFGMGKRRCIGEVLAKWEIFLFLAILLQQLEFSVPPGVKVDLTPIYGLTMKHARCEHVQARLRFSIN

[17] = Half life in dog hepatocytes; type: ADME, cell-based, Canis lupus familiaris, Hepatocyte
[18] = Cytotoxicity against human HuhET cells infected with Hepatitis C virus up to 40 uM after 48 hrs by WST assay; type: cell-based
Cytochrome P450 2C9 = Cytochrome P450 2C9 (Homo sapiens, UniProt P11712); assay: Inhibition of CYP2C9 (unknown origin); type: ADME
Sequence of Cytochrome P450 2C9 (P11712 whole entry): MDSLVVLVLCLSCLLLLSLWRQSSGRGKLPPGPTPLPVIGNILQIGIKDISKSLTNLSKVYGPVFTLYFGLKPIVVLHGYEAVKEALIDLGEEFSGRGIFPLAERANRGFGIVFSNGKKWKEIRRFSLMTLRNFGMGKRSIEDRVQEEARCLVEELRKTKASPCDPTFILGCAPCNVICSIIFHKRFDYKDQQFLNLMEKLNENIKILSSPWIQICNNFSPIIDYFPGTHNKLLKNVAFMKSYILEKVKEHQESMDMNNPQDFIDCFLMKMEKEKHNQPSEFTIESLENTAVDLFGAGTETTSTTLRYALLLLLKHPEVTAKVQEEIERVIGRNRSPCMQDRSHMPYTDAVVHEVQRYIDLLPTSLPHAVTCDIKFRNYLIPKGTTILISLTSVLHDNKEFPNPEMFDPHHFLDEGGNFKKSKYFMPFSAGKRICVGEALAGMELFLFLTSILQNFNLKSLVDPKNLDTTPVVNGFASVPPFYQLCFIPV

[19] = Half life in human hepatocytes; type: ADME, cell-based, Hepatocyte
Hepatitis C virus [20] = assay: Antiviral activity against Hepatitis C virus genotype 1 infected in patient assessed as decrease in log10 HCV RNA copies/ml at 120 mg administered as single dose; type: functional, Hepacivirus hominis
[21] = In vivo clearance in cynomolgus monkey relative to hepatic blood flow; type: ADME, organism-based, Macaca fascicularis, Liver; conditions: read-out: CLH
Cytochrome P450 2C19 = Cytochrome P450 2C19 (Homo sapiens, UniProt P33261); assay: Inhibition of CYP2C19 (unknown origin); type: ADME
Sequence of Cytochrome P450 2C19 (P33261 whole entry): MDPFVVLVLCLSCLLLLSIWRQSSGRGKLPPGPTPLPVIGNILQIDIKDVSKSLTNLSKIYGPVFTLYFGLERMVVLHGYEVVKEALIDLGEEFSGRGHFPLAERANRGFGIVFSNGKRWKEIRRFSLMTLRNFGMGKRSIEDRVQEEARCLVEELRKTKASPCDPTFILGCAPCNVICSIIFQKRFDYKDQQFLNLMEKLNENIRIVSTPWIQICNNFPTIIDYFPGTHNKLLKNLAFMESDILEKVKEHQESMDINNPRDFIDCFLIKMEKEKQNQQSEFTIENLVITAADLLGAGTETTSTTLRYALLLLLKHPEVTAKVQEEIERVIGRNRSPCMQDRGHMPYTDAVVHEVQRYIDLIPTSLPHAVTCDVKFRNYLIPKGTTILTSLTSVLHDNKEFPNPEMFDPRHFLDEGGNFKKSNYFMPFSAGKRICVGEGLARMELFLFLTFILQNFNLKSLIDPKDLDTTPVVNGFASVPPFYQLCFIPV

Cytochrome P450 3A4 = Cytochrome P450 3A4 (Homo sapiens, UniProt P08684); assay: Inhibition of CYP3A4 (unknown origin); type: ADME
Sequence of Cytochrome P450 3A4 (P08684 whole entry): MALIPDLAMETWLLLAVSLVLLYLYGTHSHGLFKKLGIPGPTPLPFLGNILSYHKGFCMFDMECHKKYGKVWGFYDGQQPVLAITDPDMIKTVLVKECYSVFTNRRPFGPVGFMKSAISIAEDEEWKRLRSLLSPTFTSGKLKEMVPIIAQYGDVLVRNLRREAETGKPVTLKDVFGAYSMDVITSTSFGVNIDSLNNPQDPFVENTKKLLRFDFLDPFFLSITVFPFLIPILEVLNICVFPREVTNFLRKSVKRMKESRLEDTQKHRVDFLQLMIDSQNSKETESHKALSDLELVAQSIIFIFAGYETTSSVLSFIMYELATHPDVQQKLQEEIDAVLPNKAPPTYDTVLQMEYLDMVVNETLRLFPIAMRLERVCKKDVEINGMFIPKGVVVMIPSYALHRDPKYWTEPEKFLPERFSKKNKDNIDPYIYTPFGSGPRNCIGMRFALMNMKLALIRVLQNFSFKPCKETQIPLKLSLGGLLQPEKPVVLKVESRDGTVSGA

[22] = Half life in cynomolgus monkey hepatocytes; type: ADME, cell-based, Macaca fascicularis, Hepatocyte
[23] = Binding affinity to human alpha1 AGP; type: ADME; conditions: isolated protein
[24] = Oral bioavailability in cynomolgus monkey; type: ADME, organism-based, Macaca fascicularis; conditions: in vivo

| SMILES | EC50 (Hepatitis C virus [1]) | EC50 (Hepatitis C virus [2]) | clearance [3] | EC50 (Hepatitis C virus [4]) | EC50 (Hepatitis C virus [5]) | bioavailability [6] | EC50 (Hepatitis C virus [7]) | Ratio EC50 (Hepatitis C virus [8]) | FC (Hepatitis C virus [9]) | FC (Hepatitis C virus [10]) | Ratio EC50 (Hepatitis C virus [11]) | FC (Hepatitis C virus [12]) | further results |
| --- | --- | --- | --- | --- | --- | --- | --- | --- | --- | --- | --- | --- | --- |
| COC(=O)N[C@H](C(=O)N1CC2(C[C@H]1c1ncc(-c3ccc(-c4ccc(-c5cnc([C@@H]6CC7(CN6C(=O)[C@@H](NC(=O)OC)C(C)C)OCCO7)[nH]5)cc4)cc3)[nH]1)OCCO2)C(C)C | 0.0126 nM | 0.0251 nM | 58 mL/min/kg | 0.0126 nM | 0.0501 nM | 9% | 0.01 nM | <=5 | – | – | – | – | – |
| COC(=O)N[C@H](C(=O)N1CCC[C@H]1c1ncc(-c2ccc(-c3ccc(-c4cnc([C@@H]5CCCN5C(=O)[C@@H](NC(=O)OC)C(C)C)[nH]4)cc3)cc2)[nH]1)C(C)C [DACLATASVIR] | 0.00398 nM | 0.126 nM | – | 0.316 nM | 0.0398 nM | – | 0.01 nM | >=25 | 2 | 2 | >=30 | 3 | – |
| COC(=O)N[C@H](C(=O)N1CCC[C@H]1c1ncc(-c2ccc(-c3ccc(-c4cnc([C@@H]5CC6(CN5C(=O)[C@@H](NC(=O)OC)C(C)C)OCCO6)[nH]4)cc3)cc2)[nH]1)C(C)C | 0.00316 nM | 0.0251 nM | 60 mL/min/kg | 0.0251 nM | 0.0398 nM | 13% | 0.00794 nM | <=5 | 3 | 2 | 3.2 | 4 | bioavailability [13]: 51%; FC (Hepatitis C virus [14]): 0.996; clearance [15]: 8 mL/min/kg; half-life [16]: 2.67 h; IC50 (Cytochrome P450 2D6): > 33000 nM; Activity (Albumin): 94%; IC50 (Cytochrome P450 1A2): > 33000 nM; half-life [17]: ≥ 6 h; Activity [18]: Non-toxic; IC50 (Cytochrome P450 2C9): > 33000 nM; half-life [19]: ≥ 6 h; FC (Hepatitis C virus [20]): 2.95; clearance [21]: 9 mL/min/kg; IC50 (Cytochrome P450 2C19): > 33000 nM; IC50 (Cytochrome P450 3A4): > 33000 nM; half-life [22]: ≥ 6 h; Activity [23]: 86%; bioavailability [24]: 13% |

Reference: ChEMBL document CHEMBL3120061, “Novel spiroketal pyrrolidine GSK2336805 potently inhibits key hepatitis C virus genotype 1b mutants: from lead to clinical compound” (J Med Chem, 2014)
